Test results from patent US8663620B2, “Murgantiol as a stink bug synergistic attractant for use outdoors” (Sterling International Inc., priority 2011, dated 2014).
Entries after “also recorded” stand apart in the source; their conditions may differ. Like-named read-outs stand apart in the source and are kept apart here.

Legend:
[1] = tested on: Euschistus spp.; test: Outdoor trapping with Rescue! Stink Bug Traps, synergistic attraction; type: in vivo; conditions: outdoors
[2] = tested on: brown marmorated stink bug (BMSB); test: Field trapping Experiment 2 (Example 2): attractant formulations with and without racemic murgantiol in Rescue! Stink Bug Traps; type: in vivo, Halyomorpha halys; conditions: outdoors, September; FIG. 3
Experimental: Two field trapping experiments were carried out from early to late September in home gardens/yards in Pittsburgh, Pa. In order to test the potential activity of the Harlequin bug pheromone, murgantiol, as a BMSB outdoor attractant or outdoor synergistic attractant to other known stink bug attractants, commercially available Rescue!® Stink Bug Traps (described in U.S. Pat. No. D645,534; U.S. Pat. No. D645,535; and U.S. patent application Ser. No. 13/331,394, filed Dec. 20, 2011) were used. Traps baited with different tested compounds or combinations were set up in lines, 1-1.5 m above the ground on either tree branches or fences ca. 3-5 m apart between each trap within a set, and at least 50 m between sets. For each trapping experiment, five sets of traps (i.e., five physical replicates of each treatment) were deployed with their initial trap positions within each set being randomized. To minimize positional effects and obtain more replications, stink bug collections and trap re-randomizations were carried out when ≧20 stink bugs were caught in the best traps. Each replicate lasted one to several days depending on stink bug activity. Captured stink bugs were removed from the traps and kept in plastic (polyethylene) zip-bags before returning to the laboratory for recording of the species, gender, and development status (nymphs, adult males/females), and catch. […]

[3] = tested on: brown marmorated stink bug (BMSB); test: Field trapping Experiment 1 (Example 1): doses of racemic murgantiol vs standard attractants in Rescue! Stink Bug Traps; type: in vivo, Halyomorpha halys; conditions: for attraction of BMSB adults (mean numbers captured in baited traps): Pittsburgh, Pa., 14 days in early September, vs blank control, Duncan's test α=0.05; for attraction of BMSB adults (mean numbers captured in baited traps) / dose-response of trap catches: FIG. 2; for dose-response of trap catches: racemic murgantiol 10, 20, 40, 80 mg
Experimental: Two field trapping experiments were carried out from early to late September in home gardens/yards in Pittsburgh, Pa. In order to test the potential activity of the Harlequin bug pheromone, murgantiol, as a BMSB outdoor attractant or outdoor synergistic attractant to other known stink bug attractants, commercially available Rescue!® Stink Bug Traps (described in U.S. Pat. No. D645,534; U.S. Pat. No. D645,535; and U.S. patent application Ser. No. 13/331,394, filed Dec. 20, 2011) were used. Traps baited with different tested compounds or combinations were set up in lines, 1-1.5 m above the ground on either tree branches or fences ca. 3-5 m apart between each trap within a set, and at least 50 m between sets. For each trapping experiment, five sets of traps (i.e., five physical replicates of each treatment) were deployed with their initial trap positions within each set being randomized. To minimize positional effects and obtain more replications, stink bug collections and trap re-randomizations were carried out when ≧20 stink bugs were caught in the best traps. Each replicate lasted one to several days depending on stink bug activity. Captured stink bugs were removed from the traps and kept in plastic (polyethylene) zip-bags before returning to the laboratory for recording of the species, gender, and development status (nymphs, adult males/females), and catch. Murgantiol and the known stink bug attractants were released from dispensers [for example, 4 mil polyethylene bags (2.3×5.5 cm) or dispensers described in U.S. patent application Ser. No. 13/206,244, filed Aug. 9, 2011, incorporated herein by reference in its entirety]. Experiment 1 (Example 1) tested different doses of racemic murgantiol (MGT) in comparison with the known standard stink bug attractants [M246DT/M24DD], and the blank control. Trap catch data were converted to proportion (P) of total captured bugs within each replicate. The data were then transformed by arcsin (P)^1/2 to meet the assumptions of normality and homogeneity of variances for ANOVA (analysis of variance). Means were compared by ANOVA followed by the Duncan's multiple range test at α=0.05.

[4] = tested on: Harlequin bugs; conditions: insect-produced and synthetic murgantiol; laboratory; cited from earlier work
[5] = tested on: BMSB adults; conditions: both sexes of adults, overwintering and transition periods; cited from earlier work
[6] = tested on: Euschistus spp.; conditions: seven Euschistus spp.; Aldrich et al. 1991; cited from earlier work
[7] = tested on: A. hilare; conditions: Aldrich et al. 2007; Khrimian 2005; cited from earlier work
[8] = tested on: BMSB; conditions: cited from earlier work

In the case of CC(CCC1OC1(C)C)C1C=CC(C)(O)CC1 (racemic) [murgantiol, 4-[3-(3,3-dimethyloxiran-2-yl)-1-methylpropyl]-1-methylcyclohex-2-en-1-ol], the “synergistic attraction together with known stink bug attractants such as M246DT and M24DD” value [1] is reported as “synergistically attract”, the “effect of adding murgantiol to M246DT/M24DD attractants on BMSB trap catches (synergism)” value [2] is reported as “synergistically attract; also recorded: significant increases in attraction; also recorded: strong synergistic effects” and the “attraction of BMSB adults (mean numbers captured in baited traps)” value (“attraction of BMSB adults” below) ([3]; outdoors) is reported as “active as an outdoor attractant; also recorded: comparable, if not more effective in attracting insects; also recorded: outdoor attractant for BMSBs in any dose amount”. The “attraction of BMSB adults” value ([3]; outdoors, listed as MGT-A) was “strong attraction to BMSBs at levels similar or even higher than the known standard stink bug attractants”, the “attraction of BMSB adults” value ([3]; outdoors, listed as MGT-B) was “strong attraction to BMSBs at levels similar or even higher than the known standard stink bug attractants” and the “attraction of BMSB adults” value ([3]; outdoors, listed as MGT-C) was “strong attraction to BMSBs at levels similar or even higher than the known standard stink bug attractants”. For the same molecule, the “attraction of BMSB adults” value ([3]; outdoors, listed as MGT-D) was “strong attraction to BMSBs at levels similar or even higher than the known standard stink bug attractants”, the “sexes and stages attracted and captured” value ([3]; outdoors, September, nymphs only 5% of total catches) was “Both sexes of adults (ca. 1:1) and nymphs were attracted and captured” and the “dose-response of trap catches” value [3] was “no significant dose-response effects”. The “dose-response of trap catches” value ([3]; listed as MGT-A) was “as effective as the highest dose”, the “attraction of Harlequin bugs” value [4] was “attracted sexually mature Harlequin bugs of both sexes” and the “indoor attraction of BMSB” value [5] was “indoor attractant”.
For CCCCC/C=C\C=C\C(=O)OC [M24DD, methyl (2E,4Z)-decadienoate], the “field attraction of Euschistus spp.” value [6] is given as “aggregation pheromone compound or field attractant”.
For CCC\C=C/C=C/C=C/C(=O)OC [M246DT, methyl (2E,4E,6Z)-decatrienoate], the “field attraction of A. hilare” value [7] is listed as “field attractant”, the “field attraction of BMSB” value ([8]; adults (males and females) and nymphs, Aldrich et al. 2007, Khrimian 2005) is listed as “field attractant for both adults (males and females) and nymphs” and the “attraction of BMSB” value ([8]; late spring and early summer, dispersal (overwintered) adults) is listed as “only weakly active”. For the same molecule, the “attraction of BMSB” value ([8]; mid-summer and early fall) was “strongly attractive to both nymphs and adults”.
